SMILES strings stand for the structures. Where a name gives a salt, the structure may show the parent alone.

T1 sequence (Q15858 1-1977 isoform Q15858-3): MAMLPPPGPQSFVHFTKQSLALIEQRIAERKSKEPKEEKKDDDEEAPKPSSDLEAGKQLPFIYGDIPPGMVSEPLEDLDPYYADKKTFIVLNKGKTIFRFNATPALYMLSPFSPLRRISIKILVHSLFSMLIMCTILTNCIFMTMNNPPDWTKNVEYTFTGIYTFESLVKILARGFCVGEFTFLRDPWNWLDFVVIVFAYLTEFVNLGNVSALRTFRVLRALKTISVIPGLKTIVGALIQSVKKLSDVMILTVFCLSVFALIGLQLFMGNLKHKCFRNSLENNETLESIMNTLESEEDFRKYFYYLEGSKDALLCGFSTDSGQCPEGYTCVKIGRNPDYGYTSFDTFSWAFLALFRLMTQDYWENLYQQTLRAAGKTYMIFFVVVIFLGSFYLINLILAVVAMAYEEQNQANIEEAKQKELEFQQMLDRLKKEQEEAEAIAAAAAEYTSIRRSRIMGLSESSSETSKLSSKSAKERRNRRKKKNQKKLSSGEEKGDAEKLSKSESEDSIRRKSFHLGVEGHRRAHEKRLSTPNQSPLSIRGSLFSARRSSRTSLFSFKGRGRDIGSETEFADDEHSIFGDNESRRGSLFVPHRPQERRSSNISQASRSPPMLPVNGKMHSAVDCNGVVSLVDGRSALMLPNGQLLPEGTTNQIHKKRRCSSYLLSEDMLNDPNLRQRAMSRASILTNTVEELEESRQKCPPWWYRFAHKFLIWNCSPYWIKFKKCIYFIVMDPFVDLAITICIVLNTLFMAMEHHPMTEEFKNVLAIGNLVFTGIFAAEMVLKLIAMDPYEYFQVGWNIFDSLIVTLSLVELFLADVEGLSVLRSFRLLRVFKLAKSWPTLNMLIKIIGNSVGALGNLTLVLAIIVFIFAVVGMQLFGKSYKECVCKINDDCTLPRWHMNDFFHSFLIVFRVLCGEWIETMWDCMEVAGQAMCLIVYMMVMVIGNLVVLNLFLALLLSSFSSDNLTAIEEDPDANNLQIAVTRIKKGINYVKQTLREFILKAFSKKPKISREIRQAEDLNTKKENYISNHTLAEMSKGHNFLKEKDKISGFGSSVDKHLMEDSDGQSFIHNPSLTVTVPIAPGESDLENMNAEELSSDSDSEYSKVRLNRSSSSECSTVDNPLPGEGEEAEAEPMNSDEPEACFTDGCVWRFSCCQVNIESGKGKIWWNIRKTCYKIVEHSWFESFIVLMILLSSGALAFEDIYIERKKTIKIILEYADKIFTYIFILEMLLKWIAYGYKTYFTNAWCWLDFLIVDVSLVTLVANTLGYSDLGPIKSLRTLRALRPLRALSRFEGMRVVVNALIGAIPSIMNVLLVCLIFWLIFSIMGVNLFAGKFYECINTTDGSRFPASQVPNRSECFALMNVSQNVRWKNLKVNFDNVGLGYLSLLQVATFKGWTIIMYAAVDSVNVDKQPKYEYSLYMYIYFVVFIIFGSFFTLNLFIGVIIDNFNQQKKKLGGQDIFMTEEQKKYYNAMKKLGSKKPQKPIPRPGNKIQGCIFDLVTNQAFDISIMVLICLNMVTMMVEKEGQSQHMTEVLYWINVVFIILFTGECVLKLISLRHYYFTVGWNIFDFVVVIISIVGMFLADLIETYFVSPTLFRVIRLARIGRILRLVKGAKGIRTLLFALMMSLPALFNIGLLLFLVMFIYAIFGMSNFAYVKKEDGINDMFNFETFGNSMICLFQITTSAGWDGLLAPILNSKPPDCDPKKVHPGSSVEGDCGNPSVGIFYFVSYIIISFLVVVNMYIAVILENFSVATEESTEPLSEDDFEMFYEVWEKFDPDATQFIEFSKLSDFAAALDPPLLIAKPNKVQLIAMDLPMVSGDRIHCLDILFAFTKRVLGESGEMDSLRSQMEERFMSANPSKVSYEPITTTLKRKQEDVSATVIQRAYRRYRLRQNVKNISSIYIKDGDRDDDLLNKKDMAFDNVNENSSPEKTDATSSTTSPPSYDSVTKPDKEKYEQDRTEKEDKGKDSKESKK

The assay concerns the target T1, hNaV1.7 (Homo sapiens, UniProt Q15858).
T1 construct: expressed in transfected cells
Description: Patch voltage clamp electrophysiology (EP), Syncropatch 384PE, Nav1.7 in CHO cells.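 Note: Nav1.7 stably expressed from cDNA in CHO cells, holding potential of −50 mV kept for the entire experiment.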 Type of assay: cell-based. The following applies: holding potential −50 mV, inhibition based on 7.5 min compound incubation, read-out: hNaV1.7 EP_SP.
As to `Cc1cc(C(=O)NS(=O)(=O)N2CCC(OC3CN(C)C3)CC2)c(F)cc1OCC1CCCC1` [Example 2, 4-(cyclopentylmethoxy)-2-fluoro-5-methyl-N-((4-((1-methylazetidin-3-yl)oxy)piperidin-1-yl)sulfonyl)benzamide], the IC50 was found to be 64 nM. In the case of `CCc1cc(C(=O)NS(=O)(=O)N2CCC(OC3CN(C)C3)CC2)c(F)cc1OCC1CCCC1` [Example 3, 4-(cyclopentylmethoxy)-5-ethyl-2-fluoro-N-((4-((1-methylazetidin-3-yl)oxy)piperidin-1-yl)sulfonyl) benzamide], the IC50 came to 22 nM.

`CN1CC(OC2CCN(S(=O)(=O)NC(=O)c3cc(C4CC4)c(OCC4CCCC4)cc3F)CC2)C1` [Example 4, 4-(cyclopentylmethoxy)-5-cyclopropyl-2-fluoro-N-((4-((1-methylazetidin-3-yl)oxy)piperidin-1-yl)sulfonyl) benzamide]: the IC50 is 15 nM. The value for `CC(C)c1cc(C(=O)NS(=O)(=O)N2CCC(OC3CN(C)C3)CC2)c(F)cc1OCC1CCCC1` [Example 5, 4-(cyclopentylmethoxy)-2-fluoro-5-isopropyl-N-((4-((1-methylazetidin-3-yl)oxy)piperidin-1-yl)sulfonyl)benzamide] was 39 nM; that for `COc1cc(C(=O)NS(=O)(=O)N2CCC(OC3CN(C)C3)CC2)c(F)cc1OCC1CCCC1` [Example 6, 4-(cyclopentylmethoxy)-2-fluoro-5-methoxy-N-((4-((1-methylazetidin-3-yl)oxy)piperidin-1-yl)sulfonyl) benzamide] was 320 nM; that for `CN1CC(OC2CCN(S(=O)(=O)NC(=O)c3cc(C4CCC4)c(OCC4CCCC4)cc3F)CC2)C1` [Example 7, 5-cyclobutyl-4-(cyclopentylmethoxy)-2-fluoro-N-((4-((1-methylazetidin-3-yl)oxy)piperidin-1-yl)sulfonyl)benzamide 2,2,2-trifluoroacetate] was 8 nM. For the compound `CN1CC(OC2CCN(S(=O)(=O)NC(=O)c3cc(C4CC4)c(OCC4CC4)cc3F)CC2)C1` [Example 9, 5-cyclopropyl-4-(cyclopropylmethoxy)-2-fluoro-N-((4-((1-methylazetidin-3-yl)oxy)piperidin-1-yl)sulfonyl)benzamide], the IC50 is 59 nM. For the compound `CC(C)N1CC(OC2CCN(S(=O)(=O)NC(=O)c3cc(Cl)c(OCC4CCCC4)cc3F)CC2)C1` [Example 10, 5-chloro-4-(cyclopentylmethoxy)-2-fluoro-N-((4-((1-isopropylazetidin-3-yl)oxy)piperidin-1-yl)sulfonyl)benzamide], the IC50 was 31 nM. The value for `O=C(NS(=O)(=O)N1CCC(OC2CN(C3COC3)C2)CC1)c1cc(Cl)c(OCC2CCCC2)cc1F` [Example 11, 5-chloro-4-(cyclopentylmethoxy)-2-fluoro-N-((4-((1-(oxetan-3-yl)azetidin-3-yl)oxy)piperidin-1-yl)sulfonyl)benzamide] was 130 nM; that for `O=C(NS(=O)(=O)N1CCC(OC2CN(C3CC3)C2)CC1)c1cc(Cl)c(OCC2CCCC2)cc1F` [Example 12, 5-chloro-4-(cyclopentylmethoxy)-N-((4-((1-cyclopropylazetidin-3-yl)oxy)piperidin-1-yl)sulfonyl)-2-fluorobenzamide] was 29 nM; that for `O=C(NS(=O)(=O)N1CCC(OC2CN(CC(F)(F)F)C2)CC1)c1cc(Cl)c(OCC2CCCC2)cc1F` [Example 13, 5-chloro-4-(cyclopentylmethoxy)-2-fluoro-N-((4-((1-(2,2,2-trifluoroethyl)azetidin-3-yl)oxy)piperidin-1-yl)sulfonyl)benzamide] was 240 nM. In the case of `O=C(NS(=O)(=O)N1CCCc2ccccc21)c1cc(Cl)c(OCC2CCCC2)cc1F` [Example 14, 5-chloro-4-(cyclopentylmethoxy)-N-((3,4-dihydroquinolin-1(2H)-yl)sulfonyl)-2-fluorobenzamide], the IC50 amounted to 78 nM.

As to `O=C(NS(=O)(=O)N1CCCc2cccnc21)c1cc(Cl)c(OCC2CCCC2)cc1F` [Example 15, 5-chloro-4-(cyclopentylmethoxy)-N-((3,4-dihydro-1,8-naphthyridin-1(2H)-yl)sulfonyl)-2-fluorobenzamide], the IC50 was 110 nM.

As to `O=C(NS(=O)(=O)N1CCc2ccccc2C1)c1cc(Cl)c(OCC2CCCC2)cc1F` [Example 19, 5-chloro-4-(cyclopentylmethoxy)-N-((3,4-dihydroisoquinolin-2(1H)-yl)sulfonyl)-2-fluorobenzamide], the IC50 is 310 nM. For `COC1CCN(S(=O)(=O)NC(=O)c2cc(Cl)c(OCC3CCCC3)cc2F)CC1` [Example 20, 5-chloro-4-(cyclopentylmethoxy)-2-fluoro-N-((4-methoxypiperidin-1-yl)sulfonyl)benzamide], the IC50 amounted to 49 nM. With `O=C(NS(=O)(=O)N1CCCCC1)c1cc(Cl)c(OCC2CCCC2)cc1F` [Example 21, 5-chloro-4-(cyclopentylmethoxy)-2-fluoro-N-(piperidin-1-ylsulfonyl)benzamide], the IC50 stood at 14 nM. With `O=C(NS(=O)(=O)N1CCCC1)c1cc(Cl)c(OCC2CCCC2)cc1F` [Example 22, 5-chloro-4-(cyclopentylmethoxy)-2-fluoro-N-(pyrrolidin-1-ylsulfonyl)-benzamide], the IC50 was determined as 9.1 nM. Consider `O=C(NS(=O)(=O)N1CCN2CCNCC2C1)c1cc(Cl)c(OCC2CCCC2)cc1F` (centres unmarked) [Example 23, 5-chloro-4-(cyclopentylmethoxy)-2-fluoro-N-((octahydro-2H-pyrazino[1,2-a]pyrazin-2-yl)sulfonyl)benzamide], for which the IC50 was determined as 110 nM. The value for `O=C(NS(=O)(=O)N1CCC(CC2CNC2)CC1)c1cc(Cl)c(OCC2CCCC2)cc1F` [Example 40, N-((4-(azetidin-3-ylmethyl)piperidin-1-yl)sulfonyl)-5-chloro-4-(cyclopentylmethoxy)-2-fluorobenzamide 2,2,2-trifluoroacetate] was 59 nM; that for `O=C(NS(=O)(=O)N1CCC(OCc2ccccc2)CC1)c1cc(Cl)c(OCC2CCCC2)cc1F` [Example 41, N-((4-(benzyloxy)piperidin-1-yl)sulfonyl)-5-chloro-4-(cyclopentylmethoxy)-2-fluorobenzamide] was 170 nM; that for `O=C(NS(=O)(=O)N1CCC(OC2CNC2)CC1)c1cc(Cl)c(OCC2CCCC2)cc1F` [Example 46, N-((4-(azetidin-3-yloxy)piperidin-1-yl)sulfonyl)-5-chloro-4-(cyclopentyl-methoxy)-2-fluorobenzamide] was 250 nM. For `O=C(NS(=O)(=O)N1CCC(OC2CNC2)CC1)c1cc(C2CC2)c(OCC2CCCC2)cc1F` [Example 47, N-((4-(azetidin-3-yloxy)piperidin-1-yl)sulfonyl)-4-(cyclopentylmethoxy)-5-cyclopropyl-2-fluorobenzamide] the value was 36 nM; for `O=C(NS(=O)(=O)N1CC(OC2CCNCC2)C1)c1cc(Cl)c(OCC2CCCC2)cc1F` [Example 50, 5-chloro-4-(cyclopentylmethoxy)-2-fluoro-N-((3-(piperidin-4-yloxy)azetidin-1-yl)sulfonyl)benzamide], 260 nM; for `CN1CCCC(OC2CCN(S(=O)(=O)NC(=O)c3cc(Cl)c(OCC4CCCC4)cc3F)CC2)C1` (centres unmarked) [Example 52, 5-chloro-4-(cyclopentylmethoxy)-2-fluoro-N-((4-((1-methylpiperidin-3-yl)oxy)piperidin-1-yl)sulfonyl) benzamide], 170 nM. The value for `O=C(NS(=O)(=O)N1CCC(OC2CCNCC2)CC1)c1cc(Cl)c(OCC2CCCC2)cc1F` [Example 53, 5-chloro-4-(cyclopentylmethoxy)-2-fluoro-N-((4-(piperidin-4-yloxy)piperidin-1-yl)sulfonyl) benzamide] was 250 nM; that for `CN(C)[C@H]1CCCC[C@@H]1Nc1ccc(S(=O)(=O)NC(=O)c2ccc(OCC3CCCC3)c(Cl)c2)c(F)c1` [Example 57, 3-chloro-4-(cyclopentylmethoxy)-N-((4-(((1S,2S)-2-(dimethylamino)-cyclohexyl)amino)-2-fluorophenyl)sulfonyl)benzamide formate] was 540 nM. With `O=C(NS(=O)(=O)c1c(F)cc(N2CCCCC2)cc1F)c1cc(Cl)c(OCC2CCCC2)cc1F` [Example 58, 5-chloro-4-(cyclopentylmethoxy)-N-((2,6-difluoro-4-(piperidin-1-yl)phenyl)-sulfonyl)-2-fluorobenzamide], the IC50 was found to be 320 nM.

On to `CN(C)C1CCCN(c2cc(F)c(S(=O)(=O)NC(=O)c3cc(Cl)c(OCC4CCCC4)cc3F)c(F)c2)C1` (centres unmarked) [Example 62, 5-chloro-4-(cyclopentylmethoxy)-N-((4-(3-(dimethylamino)piperidin-1-yl)-2,6-difluorophenyl)sulfonyl)-2-fluorobenzamide formate], for which the IC50 was 17 nM. Turning to `CN(C)[C@H]1CCCC[C@@H]1Nc1ccc(S(=O)(=O)NC(=O)c2cc(Cl)c(OCC3CCCC3)cc2F)cc1` [Example 64, 5-chloro-4-(cyclopentylmethoxy)-N-((4-(((1S,2S)-2-(dimethylamino)-cyclohexyl)amino)phenyl)sulfonyl)-2-fluorobenzamide formate], the IC50 is 290 nM. The value for `CN(C)[C@H]1CCCC[C@@H]1Oc1ccc(S(=O)(=O)NC(=O)c2cc(C3CC3)c(OCC3CCCC3)cc2F)c(F)c1` [Example 65, 4-(cyclopentylmethoxy)-5-cyclopropyl-N-((4-(((1S,2S)-2-(dimethylamino)cyclohexyl)oxy)-2-fluorophenyl)sulfonyl)-2-fluorobenzamide] was 25 nM; that for `CN(C)[C@H]1CCCC[C@@H]1Oc1ccc(S(=O)(=O)NC(=O)c2cc(Cl)c(OCC3CCCC3)cc2F)c(F)c1` [Example 66, 5-chloro-4-(cyclopentylmethoxy)-N-((4-(((1S,2S)-2-(dimethylamino)-cyclohexyl)oxy)-2-fluorophenyl)sulfonyl)-2-fluorobenzamide] was 220 nM; that for `O=C(NS(=O)(=O)c1ccc(OCc2ccccc2)cc1F)c1cc(C2CC2)c(OCC2CCCC2)cc1F` [Example 70, N-((4-(benzyloxy)-2-fluorophenyl)sulfonyl)-4-(cyclopentylmethoxy)-5-cyclopropyl-2-fluorobenzamide] was 60 nM.

(Values after patent US20240228463A1, “SODIUM CHANNEL INHIBITORS AND METHODS OF DESIGNING SAME” (Genentech, Inc., priority 2021, published 2024).)
